molecular target: hCA XII (Homo sapiens, UniProt O43570); test: Carbonic anhydrase XII inhibition activity; format: biochemical; settings: not given
Sequence (O43570 25-354): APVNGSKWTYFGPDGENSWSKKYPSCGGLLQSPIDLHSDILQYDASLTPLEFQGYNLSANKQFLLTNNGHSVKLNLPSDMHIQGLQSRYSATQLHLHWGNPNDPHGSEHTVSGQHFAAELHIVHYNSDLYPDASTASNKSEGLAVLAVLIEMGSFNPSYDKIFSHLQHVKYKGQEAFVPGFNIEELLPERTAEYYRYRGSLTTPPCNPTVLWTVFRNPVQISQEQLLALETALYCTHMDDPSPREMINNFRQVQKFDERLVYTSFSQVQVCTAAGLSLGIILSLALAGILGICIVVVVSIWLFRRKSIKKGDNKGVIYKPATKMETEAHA

Point of comparison: `CCN(CC)c1ccc(NS(=O)(=O)c2ccc(C)cc2)cc1` [Compound 3e, N-(4-(Diethylamino)phenyl)-4-methylbenzenesulfonamide], IC50 0.63 ± 0.14 µM. Against it:
- Cc1ccc(S(=O)(=O)Nc2c(C)cccc2C)cc1 [Compound 3c, N-(2,6-Dimethylphenyl)-4-methylbenzenesulfonamide] — within error, 0.7 ± 0.2 µM
- Cc1ccc(S(=O)(=O)NCc2ccccc2)cc1 [Compound 3f, N-benzyl-4-methylbenzenesulfonamide] — within error, 0.86 ± 0.28 µM
- COc1ccc(CCNS(=O)(=O)c2ccc(C)cc2)cc1OC [Compound 3l, N-(3,4-Dimethoxyphenethyl)-4-methylbenzenesulfonamide] — within error, 1.17 ± 1 µM
- COc1ccc(S(=O)(=O)Nc2ccccc2)cc1 [Compound 3k, 4-Methoxy-N-phenylbenzenesulfonamide] — within error, 1.14 ± 0.37 µM
- Cc1ccc(S(=O)(=O)NC(c2ccccc2)c2ccccc2)cc1 [Compound 3g, N-Benzhydryl-4-methylbenzenesulfonamide] — within error, 1.3 ± 0.78 µM
- COc1ccc(S(=O)(=O)NC(c2ccccc2)c2ccccc2)cc1 [Compound 3m, N-Benzhydryl-4-methoxybenzenesulfonamide] — 2.2-fold higher, 1.4 ± 0.57 µM
- Cc1ccc(S(=O)(=O)Nc2cc(C)ccc2C)cc1 [Compound 3b, N-(2,5-Dimethylphenyl)-4-methylbenzenesulfonamide] — 1.6-fold higher, 1.03 ± 0.23 µM
- Cc1ccc(S(=O)(=O)Nc2ccc(C)c(C)c2)cc1 [Compound 3j, N-(3,4-Dimethylphenyl)-4-methylbenzenesulfonamide] — within error, 1.12 ± 1 µM
- Cc1ccc(S(=O)(=O)NNc2ccccc2)cc1 [Compound 3h, 4-Methyl-N′-phenylbenzenesulfonohydrazide] — within error, 1.08 ± 0.62 µM

same assay, conditions: CA XII; at 100 μM

With `COc1ccc(S(=O)(=O)NNc2ccccc2)cc1` [Compound 3i, 4-Methoxy-N′-phenylbenzenesulfonohydrazide] the “% inhibition CA XII” value was 27%.

molecular target: hCA IX (Homo sapiens, UniProt Q16790); test: biochemical; settings: CA IX; at 100 μM

For `CCN(CC)c1ccc(NS(=O)(=O)c2ccc(C)cc2)cc1` [Compound 3e, N-(4-(Diethylamino)phenyl)-4-methylbenzenesulfonamide], the “% inhibition CA IX” value was 31%.

same assay, conditions: IC50 (μM) ± SEM CA IX, CA IX; ± SEM

Point of comparison: `Cc1ccc(S(=O)(=O)NCc2ccccc2)cc1` [Compound 3f, N-benzyl-4-methylbenzenesulfonamide], IC50 1.98 ± 0.61 µM. Against it:
- Cc1ccc(S(=O)(=O)Nc2c(C)cccc2C)cc1 [Compound 3c, N-(2,6-Dimethylphenyl)-4-methylbenzenesulfonamide] — within error, 1.06 ± 0.63 µM
- COc1ccc(CCNS(=O)(=O)c2ccc(C)cc2)cc1OC [Compound 3l, N-(3,4-Dimethoxyphenethyl)-4-methylbenzenesulfonamide] — 2.6-fold lower, 0.764 ± 0.54 µM
- Cc1ccc(S(=O)(=O)Nc2ccccc2)cc1 [Compound 3a, 4-Methyl-N-phenylbenzenesulfonamide] — within error, 1.2 ± 0.75 µM
- Cc1ccc(S(=O)(=O)NC(c2ccccc2)c2ccccc2)cc1 [Compound 3g, N-Benzhydryl-4-methylbenzenesulfonamide] — within error, 0.78 ± 0.83 µM
- Cc1ccc(S(=O)(=O)Nc2cc(C)ccc2C)cc1 [Compound 3b, N-(2,5-Dimethylphenyl)-4-methylbenzenesulfonamide] — within error, 1.65 ± 1.3 µM
- Cc1ccc(S(=O)(=O)Nc2ccc(C)c(C)c2)cc1 [Compound 3j, N-(3,4-Dimethylphenyl)-4-methylbenzenesulfonamide] — 3.2-fold lower, 0.62 ± 0.2 µM
- Cc1ccc(S(=O)(=O)NNc2ccccc2)cc1 [Compound 3h, 4-Methyl-N′-phenylbenzenesulfonohydrazide] — within error, 0.484 ± 1.4 µM

same assay, conditions: read-out: % inhibition CA IX, CA IX; at 100 μM

`CCN(CC)c1ccc(NS(=O)(=O)c2ccc(C)cc2)cc1` [Compound 3e, N-(4-(Diethylamino)phenyl)-4-methylbenzenesulfonamide] was tested, and the inhibition at 100 µM was < 31%.

molecular target: hCA II (Homo sapiens, UniProt P00918); test: Carbonic anhydrase II inhibition activity; format: biochemical; settings: not given

Point of comparison: `Cc1ccc(S(=O)(=O)NCc2ccccc2)cc1` [Compound 3f, N-benzyl-4-methylbenzenesulfonamide], IC50 1.07 ± 0.82 µM. Against it:
- Cc1ccc(S(=O)(=O)Nc2c(C)cccc2C)cc1 [Compound 3c, N-(2,6-Dimethylphenyl)-4-methylbenzenesulfonamide] — within error, 1.55 ± 0.8 µM
- COc1ccc(S(=O)(=O)Nc2ccccc2)cc1 [Compound 3k, 4-Methoxy-N-phenylbenzenesulfonamide] — within error, 1.74 ± 0.54 µM
- Cc1ccc(S(=O)(=O)Nc2ccccc2)cc1 [Compound 3a, 4-Methyl-N-phenylbenzenesulfonamide] — within error, 1.3 ± 0.51 µM
- COc1ccc(S(=O)(=O)NNc2ccccc2)cc1 [Compound 3i, 4-Methoxy-N′-phenylbenzenesulfonohydrazide] — within error, 2.76 ± 1.1 µM
- Cc1ccc(S(=O)(=O)NC(c2ccccc2)c2ccccc2)cc1 [Compound 3g, N-Benzhydryl-4-methylbenzenesulfonamide] — within error, 0.863 ± 0.54 µM
- COc1ccc(S(=O)(=O)NC(c2ccccc2)c2ccccc2)cc1 [Compound 3m, N-Benzhydryl-4-methoxybenzenesulfonamide] — within error, 0.507 ± 0.4 µM
- Cc1ccc(S(=O)(=O)Nc2ccc(C)c(C)c2)cc1 [Compound 3j, N-(3,4-Dimethylphenyl)-4-methylbenzenesulfonamide] — within error, 2.5 ± 1.5 µM
- Cc1ccc(S(=O)(=O)NNc2ccccc2)cc1 [Compound 3h, 4-Methyl-N′-phenylbenzenesulfonohydrazide] — within error, 0.52 ± 0.44 µM

same assay, conditions: CA II; at 100 μM

`COc1ccc(CCNS(=O)(=O)c2ccc(C)cc2)cc1OC` [Compound 3l, N-(3,4-Dimethoxyphenethyl)-4-methylbenzenesulfonamide] was tested, and the “% inhibition CA II” value was 32%.

same assay, conditions: read-out: % inhibition CA II, CA II; at 100 μM

For `COc1ccc(CCNS(=O)(=O)c2ccc(C)cc2)cc1OC` [Compound 3l, N-(3,4-Dimethoxyphenethyl)-4-methylbenzenesulfonamide], the inhibition at 100 µM was < 50%.

Reference: article PMC8979346 (RSC Advances, 2022)
